Assay results taken from US20230331718A1, “COMPOSITIONS FOR MODULATING SPLICING” (Skyhawk Therapeutics, Inc., priority 2020, published 2023).

Key:
[1] = test system: SMN2 Protein; assay: SMN Protein Assay (MSD); type: cell-based, human; conditions: SMA patient fibroblasts, 48 hours, 0.6 nM to 2.5 µM
Method: Spinal muscular atrophy (SMA) patient fibroblasts were plated in 96-well plates at 7,000 cells/well. Compounds were added in concentrations ranging from 0.6 nM to 2.5 µM, incubated for 48 hours and the cells were lysed with 100 µL of lysis buffer. 20 µL of lysate was used for SMN protein measurement by Mesoscale Discovery (MSD) assay developed by PharmOptima (Michigan). A standard curve prepared with SMN protein ranging from 1 µg/ml to 19.5pg/ml was used in each MSD plate to calculate the absolute SMN protein amount in each sample.

[2] = test system: SMN2 Splicing D7 (SMN Δ7 transcript); assay: SMN Quantitative Splicing Assay (qPCR); type: cell-based, human; conditions: 24 h, SMA patient fibroblasts (GM03813), 2.5 µM to 0.6 nM
Method: Spinal muscular atrophy (SMA) patient fibroblasts (GM03813, Coriell) were plated in 96-well plates at 50,000 cells/well. […] Treated cells were lysed and cDNA synthesized using the Fast Advanced Cells-to-Ct kit (Thermofisher A35378) according to the manufacturer’s instructions. 2 µL of each cDNA were used in qPCR reactions. […] Reactions were run in a Quant Studio 6 qPCR instrument with default settings.

Row | SMILES | EC50 [1] [nM] | IC50 ([2]; Homo sapiens, Fibroblast) [nM] | IC50 [2] [nM]
1 | Cc1cc(=O)c2cc(-c3ncc(N(C)[C@H]4C[C@@H]5CCC[C@@H](N5)[C@H]4F)nn3)c(O)cc2o1 [Compound 112] | 16 to 50 | 16 to 50 | –
2 | CCc1cc(=O)c2cc(-c3ncc(N(C)[C@@H]4C[C@H]5CCCC(N5)[C@@H]4F)nn3)c(O)cc2o1 [Compound 115] | 16 to 50 | 101 to 500 | –
3 | CCc1cc(=O)c2cc(-c3ncc(N(C)[C@H]4C[C@@H]5CCCC(N5)[C@H]4F)nn3)c(O)cc2o1 [Compound 116] | 16 to 50 | 51 to 100 | –
4 | CCc1cc(=O)c2cc(-c3ncc(N(C)[C@@H]4C[C@H]5CCC(N5)[C@@H]4F)nn3)c(O)cc2o1 [Compound 117] | 16 to 50 | 51 to 100 | –
5 | CCc1cc(=O)c2cc(-c3ncc(N(C)[C@H]4C[C@@H]5CCC(N5)[C@H]4F)nn3)c(O)cc2o1 [Compound 118] | 0.01 to 15 | 0.01 to 15 | –
6 | CCn1ccc2cc(-c3ncc(N(C)[C@H]4C[C@@H]5CCCC(N5)[C@H]4F)nn3)c(O)cc2c1=O [Compound 121] | 0.01 to 15 | 0.01 to 15 | –
7 | CCn1ccc2cc(-c3ncc(N(C)C4CC5CCCC(N5)C4F)nn3)c(O)cc2c1=O (stereo not shown) [Compound 122] | 501 to 10000 | 51 to 100 | –
8 | CN(c1cnc(-c2cc3ncn(C)c(=O)c3cc2O)nn1)C1CC2CCCC(N2)C1F (stereo not shown) [Compound 123] | 0.01 to 15 | 0.01 to 15 | –
9 | CN(c1cnc(-c2cc3ncn(C)c(=O)c3cc2O)nn1)[C@@H]1C[C@H]2CCCC(N2)[C@@H]1F [Compound 124] | 16 to 50 | 16 to 50 | –
10 | CCn1cnc2cc(-c3ncc(N(C)[C@H]4CC5CCC[C@@H](N5)[C@H]4F)nn3)c(O)cc2c1=O [Compound 125] | 16 to 50 | 0.01 to 15 | –
11 | CCn1cnc2cc(-c3ncc(N(C)C4CC5CCCC(N5)C4F)nn3)c(O)cc2c1=O (stereo not shown) [Compound 126] | 51 to 100 | 101 to 500 | –
12 | Cc1cc(=O)c2cc(O)c(-c3ncc(N(C)[C@H]4CC5CCC[C@@H](N5)[C@H]4F)nn3)cc2o1 [Compound 127] | 0.01 to 15 | 0.01 to 15 | –
13 | Cc1cc(=O)c2cc(O)c(-c3ncc(N(C)C4CC5CCCC(N5)C4F)nn3)cc2o1 (stereo not shown) [Compound 128] | 0.01 to 15 | 16 to 50 | –
14 | CN(c1cnc(-c2cc3cnn(C)c(=O)c3cc2O)nn1)C1CC2CCCC(N2)C1F (stereo not shown) [Compound 131] | 0.01 to 15 | – | 0.01 to 15
15 | CN(c1cnc(-c2cc3cnn(C)c(=O)c3cc2O)nn1)C1CC2CCCC(N2)C1F (stereo not shown) [Compound 132] | 51 to 100 | – | 16 to 50
16 | CN(c1cnc(-c2cc3ncn(C)c(=O)c3cc2O)nn1)C1CC2CC[C@](C)(N2)[C@@H]1F (stereo partly shown) [Compound 135] | 0.01 to 15 | 0.01 to 15 | –
17 | CN(c1cnc(-c2cc3ncn(C)c(=O)c3cc2O)nn1)C1CC2CC[C@@](C)(N2)[C@H]1F (stereo partly shown) [Compound 136] | 0.01 to 15 | 0.01 to 15 | –
18 | CN(c1cnc(-c2cc3c(F)cn(C)c(=O)c3cc2O)nn1)C1CC2CCCC(N2)[C@H]1F (stereo partly shown) [Compound 137] | 0.01 to 15 | 0.01 to 15 | –
19 | CN(c1cnc(-c2cc3c(F)cn(C)c(=O)c3cc2O)nn1)C1CC2CCCC(N2)[C@@H]1F (stereo partly shown) [Compound 138] | 0.01 to 15 | 16 to 50 | –
20 | CN(c1cnc(-c2cc3c(=O)n(C)cnc3cc2O)nn1)C1CC2CCC(N2)[C@H]1F (stereo partly shown) [Compound 139] | 0.01 to 15 | 16 to 50 | –
21 | CN(c1cnc(-c2cc3c(=O)n(C)cnc3cc2O)nn1)C1CC2CCC(N2)[C@@H]1F (stereo partly shown) [Compound 140] | 16 to 50 | 101 to 500 | –
22 | CN(c1cnc(-c2cc3ccn(C)c(=O)c3cc2O)nn1)C1CC2CC(F)(F)C(C1)N2 (stereo not shown) [Compound 141] | 101 to 500 | – | 101 to 500
23 | CN(c1cnc(-c2cc3ccn(C)c(=O)c3cc2O)nn1)C1CC2CC(F)(F)C(C1)N2 (stereo not shown) [Compound 142] | 0.01 to 15 | – | 16 to 50
24 | CN(c1cnc(-c2cc3ncn(C)c(=O)c3cc2O)nn1)C1CC2CC(F)(F)C(C1)N2 (stereo not shown) [Compound 143] | 51 to 100 | – | 101 to 500

Row | SMILES | EC50 [1] [nM] | IC50 ([2]; Homo sapiens, Fibroblast) [nM] | IC50 [2] [nM]
25 | CN(c1cnc(-c2cc3ncn(C)c(=O)c3cc2O)nn1)C1CC2CC(F)(F)C(C1)N2 (stereo not shown) [Compound 144] | 0.01 to 15 | – | 0.01 to 15
26 | CN(c1cnc(-c2cc3ccn(C)c(=O)c3cc2O)nn1)C1CC2COCC(C1)N2 (stereo not shown) [Compound 147] | 0.01 to 15 | 0.01 to 15 | –
27 | CN(c1cnc(-c2cc3ncn(C)c(=O)c3cc2O)nn1)C1CC2COCC(C1)N2 (stereo not shown) [Compound 148] | 0.01 to 15 | 0.01 to 15 | –
28 | CN(c1cnc(-c2cc3cnn(C)c(=O)c3cc2O)nn1)C1CC2COCC(C1)N2 (stereo not shown) [Compound 149] | 51 to 100 | 0.01 to 15 | –
29 | CN(c1cnc(-c2cc3ncn(C)c(=O)c3cc2O)nn1)[C@H]1C[C@]2(C)COC[C@](C)(C1)N2 [Compound 150] | 0.01 to 15 | 0.01 to 15 | –
30 | CN(c1cnc(-c2cc3cnn(C)c(=O)c3cc2O)nn1)[C@H]1C[C@]2(C)COC[C@](C)(C1)N2 [Compound 151] | 0.01 to 15 | 0.01 to 15 | –
31 | CN(c1cnc(-c2cc3ccn(C)c(=O)c3cc2O)nn1)[C@H]1C[C@]2(C)COC[C@](C)(C1)N2 [Compound 152] | 0.01 to 15 | 0.01 to 15 | –
32 | CN(c1cnc(-c2cc3ccn(C(F)F)c(=O)c3cc2O)nn1)[C@H]1CC2CCC(N2)[C@H]1F (stereo partly shown) [Compound 155] | 0.01 to 15 | 0.01 to 15 | –
33 | CN(c1cnc(-c2cc3ccn(C(F)F)c(=O)c3cc2O)nn1)[C@@H]1CC2CCC(N2)[C@@H]1F (stereo partly shown) [Compound 156] | 0.01 to 15 | 16 to 50 | –
34 | [2H]C([2H])([2H])n1ccc2cc(-c3ncc(N(C)[C@H]4CC5CCC(N5)[C@H]4F)nn3)c(O)cc2c1=O (stereo partly shown) [Compound 157] | 16 to 50 | 16 to 50 | –
35 | [2H]C([2H])([2H])n1ccc2cc(-c3ncc(N(C)[C@@H]4CC5CCC(N5)[C@@H]4F)nn3)c(O)cc2c1=O (stereo partly shown) [Compound 158] | 0.01 to 15 | 0.01 to 15 | –
36 | Cc1cnc2cc(O)c(-c3ncc(N(C)[C@@H]4CC5CCCC(N5)[C@@H]4F)nn3)cc2n1 (stereo partly shown) [Compound 159] | 0.01 to 15 | 16 to 50 | –
37 | Cc1cnc2cc(O)c(-c3ncc(N(C)[C@H]4CC5CCCC(N5)[C@H]4F)nn3)cc2n1 (stereo partly shown) [Compound 160] | 101 to 500 | 101 to 500 | –
38 | CN(c1cnc(-c2cc3oc(C(F)(F)F)cc(=O)c3cc2O)nn1)[C@@H]1CC2CCCC(N2)[C@@H]1F (stereo partly shown) [Compound 161] | 0.01 to 15 | 51 to 100 | –
39 | CCN1C=C(F)c2cc(-c3ncc(N(C)[C@@H]4CC5CCC(N5)[C@@H]4F)nn3)c(O)cc2O1 (stereo partly shown) [Compound 162] | 0.01 to 15 | 51 to 100 | –
40 | CCn1cc(F)c2cc(-c3ncc(N(C)[C@H]4C[C@@H]5CCC(N5)[C@H]4F)nn3)c(O)cc2c1=O [Compound 163, 2-Ethyl-4-fluoro-6-(6-{[(2R,3S,5S)-2-fluoro-8-azabicyclo[3.2.1]octan-3-yl](methyl)amino}-1,2,4-triazin-3-yl)-7-hydroayisoquinolin-1-one] | 0.01 to 15 | 0.01 to 15 | –
41 | CCn1ncc2cc(-c3ncc(N(C)[C@@H]4CC5CC[C@H](N5)[C@@H]4F)nn3)c(O)cc2c1=O [Compound 164] | 16 to 50 | 51 to 100 | –
42 | CCn1ncc2cc(-c3ncc(N(C)[C@H]4C[C@@H]5CCC(N5)[C@H]4F)nn3)c(O)cc2c1=O [Compound 165] | 0.01 to 15 | 0.01 to 15 | –
43 | CN(c1cnc(-c2cc3oc(C(F)(F)F)cc(=O)c3cc2O)nn1)[C@H]1C[C@@H]2CCCC(N2)[C@H]1F [Compound 166] | 0.01 to 15 | 16 to 50 | –
44 | [2H]C([2H])([2H])N(c1cnc(-c2cc3ccn(C([2H])([2H])[2H])c(=O)c3cc2O)nn1)[C@H]1C[C@@H]2CCC(N2)[C@H]1F [Compound 167] | 0.01 to 15 | 0.01 to 15 | –
45 | [2H]C([2H])([2H])N(c1cnc(-c2cc3ccn(C([2H])([2H])[2H])c(=O)c3cc2O)nn1)[C@@H]1CC2CC[C@H](N2)[C@@H]1F [Compound 168] | 0.01 to 15 | 51 to 100 | –
46 | CN(c1cnc(-c2cc3cc[nH]c(=O)c3cc2O)nn1)[C@H]1C[C@@H]2CCC(N2)[C@H]1F [Compound 169] | 0.01 to 15 | 16 to 50 | –
47 | CN(c1cnc(-c2cc3cc[nH]c(=O)c3cc2O)nn1)[C@@H]1CC2CC[C@H](N2)[C@@H]1F [Compound 170] | 16 to 50 | 51 to 100 | –
